Measurements reported in patent publication US20040076974A1, “Liver necrosis predictive genes” (priority 2002, published 2004).
Where two headings read alike, the source gives them in different places.

Tested on: Sprague Dawley rats
Protocol: Sprague Dawley rats Crl:CD from Charles River, Raleigh, N.C. were divided into treated rats that receive a specific concentration of the compound (see Table 1) and. control rats that only received the vehicle in which the compound is mixed (e.g., saline).
At specified timepoints (6 h, 24 h and 72 h) after administration (intraperitoneal route) of the compound, a set number of rats (usually 3 control and 3 treated) were euthanized and tissues collected. Each, rat was heavily sedated with an overdose of CO2 by inhalation and a maximum amount of blood drawn. Exsanguination of the rat by this drawing of blood kills the rat. The method of collecting the tissues is very important and ensures preserving the quality of the mRNA in the tissues. The body of the rat was then opened up and prosectors rapidly removed the tissues (including) and immediately placed them into liquid nitrogen. […] The organs/tissues were then packaged into well-labeled plastic freezer quality bags and stored at −80 degrees until needed for isolation of the mRNA from a portion of the organ/tissue sample.
Histopathology scores for each animal (assigned on a compound-dose basis as indicated in Table 1) were entered with gene expression data by using the GeneSpring™ ‘Drawn Gene’ function. Correlations between the histopathology scores and gene expression were conducted with the distance measures listed below:
Toxicity classifications were entered for training and test set as a parameter column. Toxicity, as defined by observation of necrosis in the at 72 hours after treatment, was entered as a “yes” or “no” for each animal in a compound-dose group. Additionally, a parameter column for random histopathology classification was designated. This was done by randomly assigning the same number of “yes” and “no” calls to the individual animals.

[1] = compound-dose group at 72 h; dose 20
[2] = compound-dosegroup at 72 h, dose 20
[3] = rat, intraperitoneal, dose 20 mg/kg, 72 hours after treatment
[4] = rat, intraperitoneal, dose 20 mg/kg, 72 hours; 1 = not remarkable, 2 and higher increasing severity
[5] = Sprague Dawley, rat, in vivo, ip, 50 mg/kg, 72 h
[6] = 72 h; compound-dose group; dose BRB 800, BUS 14, CAD 1, CAR 16
[7] = compound-dose group at 72 h; BUS 14, CAD 1, CAR 16 (dose codes, Table 1)

CN(N=O)C(=O)N[C@H]1C(O)O[C@H](CO)[C@@H](O)[C@@H]1O (mixture of isomers) [streptozotocin]
Liver Toxicity Necrosis Classification (compound-dose group at 72 h, dose 20): no
Liver Toxicity Necrosis Classification (compound-dose group at 72 h, dose 75): no
Liver Toxicity Necrosis Classification [1]: no
Liver Toxicity Necrosis Classification (compound-dose group at 72 h; dose 75): no
Liver Toxicity Necrosis Classification [2]: no
Liver Toxicity Necrosis Classification (compound-dosegroup at 72 h, dose 75): no
Liver Toxicity Necrosis Classification (compound-dosegroup at 72 h; dose PEG 5000, PUR 38, QUIN 25, STRZ 20): no
Liver Necrosis [3]: no
Score (histopathology liver necrosis severity score) [4]: 1
Liver Necrosis (rat, intraperitoneal, dose 75 mg/kg, 72 hours after treatment): no
Score (histopathology liver necrosis severity score) (rat, intraperitoneal, dose 75 mg/kg, 72 hours; 1 = not remarkable, 2 and higher increasing severity): 1

O=c1[nH]cc(F)c(=O)[nH]1 [5-fluorouracil]
Score (histopathology liver necrosis severity score) (Sprague Dawley, rat, in vivo, ip, 13 mg/kg, 72 h): 1
Score (histopathology liver necrosis severity score) [5]: 1
Liver Toxicity Necrosis Classification (rat, in vivo): no
Liver Necrosis (rat, in vivo, ip, 13 mg/kg): no
Liver Necrosis (rat, in vivo, ip, 50 mg/kg): no

C[C@@H]1[C@H](O)[C@@H](C)/C=C/C=C/C=C/C=C/C=C/C=C/C=C/[C@H](O[C@@H]2O[C@H](C)[C@@H](O)[C@H](N)[C@@H]2O)C[C@@H]2O[C@](O)(C[C@@H](O)C[C@@H](O)[C@H](O)CC[C@@H](O)C[C@@H](O)CC(=O)O[C@H]1C)C[C@H](O)[C@H]2C(=O)O [amphotericin B]
Liver Toxicity Necrosis Classification (72 h; dose 5): no
Liver Toxicity Necrosis Classification (72 h; dose 20): no
Liver Toxicity Necrosis Classification (AMPB 20; 72 h): no
Liver Toxicity Necrosis Classification (compound-dose group at 72 h; dose 5): no
Liver Toxicity Necrosis Classification [1]: no
Liver Toxicity Necrosis Classification (compound-dosegroup at 72 h, dose 5): no
Liver Toxicity Necrosis Classification [2]: no
Liver Necrosis (rat, intraperitoneal, dose 5 mg/kg, 72 hours after treatment): No
Score (histopathology liver necrosis severity score) (rat, intraperitoneal, dose 5 mg/kg, 72 hours; 1 = not remarkable, 2 and higher increasing severity): 1
Liver Necrosis [3]: No
Score (histopathology liver necrosis severity score) [4]: 1

Cn1cnc([N+](=O)[O-])c1Sc1ncnc2nc[nH]c12 [azathioprine]
Score (histopathology liver necrosis severity score) [5]: 1
Score (histopathology liver necrosis severity score) (Sprague Dawley, rat, in vivo, ip, 200 mg/kg, 72 h): 1
Liver Toxicity Necrosis Classification (rat, in vivo): no
Liver Necrosis (rat, in vivo, ip, 50 mg/kg): No
Liver Necrosis (rat, in vivo, ip, 200 mg/kg): No

c1ccccc1 [benzene]
Liver Toxicity Necrosis Classification (rat, in vivo): no
Liver Necrosis (rat, in vivo, ip): No
Score (histopathology liver necrosis severity score) (rat, in vivo, ip): 1

c1ccc2c(c1)cc1ccc3cccc4ccc2c1c34 [benzo[a]pyrene]
Liver Toxicity Necrosis Classification (compound-dose group at 72 h; dose 30): no
Liver Necrosis (rat, intraperitoneal, dose 30 mg/kg, 72 hours after treatment): No
Score (histopathology liver necrosis severity score) (rat, intraperitoneal, dose 30 mg/kg, 72 hours; 1 = not remarkable, 2 and higher increasing severity): 1

CS(=O)(=O)OCCCCOS(C)(=O)=O [busulfan]
Score (histopathology liver necrosis severity score) (Sprague Dawley, rat, in vivo, ip, 14 mg/kg, 72 h): 1
Liver Toxicity Necrosis Classification (rat, in vivo): no
Liver Necrosis (rat, in vivo, ip, 14 mg/kg): no

[Cl][Cd][Cl] [cadmium chloride]
Liver Toxicity Necrosis Classification [6]: no
Liver Toxicity Necrosis Classification (72 h; compound-dose group; dose CAD 2): no
Liver Toxicity Necrosis Classification (compound-dose group at 72 h, dose 1; no = no necrosis observed): no
Liver Toxicity Necrosis Classification (compound-dose group at 72 h, dose 4; yes = necrosis observed): yes
Liver Toxicity Necrosis Classification [7]: no
Liver Necrosis (rat, intraperitoneal, dose 1 mg/kg, 72 hours after treatment): no
Score (histopathology liver necrosis severity score) (rat, intraperitoneal, dose 1 mg/kg, 72 hours; 1 = not remarkable, 2 and higher increasing severity): 1
Liver Necrosis (rat, intraperitoneal, dose 2 mg/kg, 72 hours after treatment): No
Score (histopathology liver necrosis severity score) (rat, intraperitoneal, dose 2 mg/kg, 72 hours; 1 = not remarkable, 2 and higher increasing severity): 1
Liver Necrosis (rat, intraperitoneal, dose 4 mg/kg, 72 hours after treatment): Yes
Score (histopathology liver necrosis severity score) (rat, intraperitoneal, dose 4 mg/kg, 72 hours; 1 = not remarkable, 2 and higher increasing severity): 3

O=NN(CCCl)C(=O)NCCCl [carmustine]
Liver Toxicity Necrosis Classification (72 h, dose 16): no
Liver Toxicity Necrosis Classification [6]: no
Liver Toxicity Necrosis Classification [7]: no
Liver Toxicity Necrosis Classification (compound-dosegroup at 72 h; dose 16): no
Liver Necrosis (rat, intraperitoneal, dose 16 mg/kg, 72 hours after treatment): no
Score (histopathology liver necrosis severity score) (rat, intraperitoneal, dose 16 mg/kg, 72 hours; 1 = not remarkable, 2 and higher increasing severity): 1

ClC(Cl)Cl [chloroform]
Liver Toxicity Necrosis Classification (rat, in vivo): no
Liver Necrosis (rat, in vivo, ip): no
Score (histopathology liver necrosis severity score) (rat, in vivo, ip): 1

CN(C)CCCN1c2ccccc2Sc2ccc(Cl)cc21 [chlorpromazine]
Score (histopathology liver necrosis severity score) (Sprague Dawley, rat, in vivo, ip, 8 mg/kg, 72 h): 1
Score (histopathology liver necrosis severity score) (Sprague Dawley, rat, in vivo, ip, 30 mg/kg, 72 h): 1
Liver Toxicity Necrosis Classification (rat, in vivo): no
Liver Necrosis (rat, in vivo, ip, 8 mg/kg): no
Liver Necrosis (rat, in vivo, ip, 30 mg/kg): no

N.N.[Cl][Pt][Cl] [cisplatin]
Liver Necrosis (rat, intraperitoneal, dose 10 mg/kg, 72 hours after treatment): no
Score (histopathology liver necrosis severity score) (rat, intraperitoneal, dose 10 mg/kg, 72 hours; 1 = not remarkable, 2 and higher increasing severity): 1

CCOC(=O)C(C)(C)Oc1ccc(Cl)cc1 [clofibrate]
Score (histopathology liver necrosis severity score) (Sprague Dawley, rat, in vivo, ip, 75 mg/kg, 72 h): 1
Score (histopathology liver necrosis severity score) (Sprague Dawley, rat, in vivo, ip, 250 mg/kg, 72 h): 1
Liver Toxicity Necrosis Classification (rat, in vivo): no
Liver Necrosis (rat, in vivo, ip, 75 mg/kg): no
Liver Necrosis (rat, in vivo, ip, 250 mg/kg): no

CN1CCN(C2=Nc3cc(Cl)ccc3Nc3ccccc32)CC1 [clozapine]
Score (histopathology liver necrosis severity score) (Sprague Dawley, rat, in vivo, ip, 45 mg/kg, 72 h): 1
Score (histopathology liver necrosis severity score) (Sprague Dawley, rat, in vivo, ip, 180 mg/kg, 72 h): 1
Liver Toxicity Necrosis Classification (rat, in vivo): no
Liver Necrosis (rat, in vivo, ip, 45 mg/kg): no
Liver Necrosis (rat, in vivo, ip, 180 mg/kg): no

O=C(O)c1cc(-c2ccc(F)cc2F)ccc1O [diflunisal]
Score (histopathology liver necrosis severity score) (Sprague Dawley, rat, in vivo, ip, 25 mg/kg, 72 h): 1
Score (histopathology liver necrosis severity score) (Sprague Dawley, rat, in vivo, ip, 100 mg/kg, 72 h): 1
Liver Toxicity Necrosis Classification (rat, in vivo): no
Liver Necrosis (rat, in vivo, ip, 25 mg/kg): no
Liver Necrosis (rat, in vivo, ip, 100 mg/kg): no

CN(C)N=O [dimethylnitrosamine]
Liver Toxicity Necrosis Classification (72 h, dose 20): yes
Liver Toxicity Necrosis Classification (72 h; dose 20): yes
Liver Toxicity Necrosis Classification (compound-dose group at 72 h; CCL4 1000, DMN 20, LPS 8): yes
Liver Necrosis [3]: Yes
Score (histopathology liver necrosis severity score) [4]: 9

COc1cccc2c1C(=O)c1c(O)c3c(c(O)c1C2=O)C[C@@](O)(C(=O)CO)C[C@@H]3O[C@H]1C[C@H](N)[C@H](O)[C@H](C)O1 [doxorubicin]
Score (histopathology liver necrosis severity score) (Sprague Dawley, rat, in vivo, ip, 12 mg/kg, 72 h): 1
Liver Toxicity Necrosis Classification (rat, in vivo): no
Liver Necrosis (rat, in vivo, ip, 12 mg/kg): no

CCC(=O)O[C@H]1[C@H](O[C@@H]2[C@@H](C)[C@H](O[C@H]3C[C@@](C)(OC)[C@@H](O)[C@H](C)O3)[C@@H](C)C(=O)O[C@H](CC)[C@@](C)(O)[C@H](O)[C@@H](C)C(=O)[C@H](C)C[C@@]2(C)O)O[C@H](C)C[C@@H]1N(C)C [erythromycin estolate]
Liver Toxicity Necrosis Classification (72 h, dose 40): no
Liver Toxicity Necrosis Classification (compound-dose group at 72 h; dose 40): no
Liver Toxicity Necrosis Classification (compound-dose group at 72 h; dose 160): no
Liver Toxicity Necrosis Classification (dose 40, 72 h): no
Liver Toxicity Necrosis Classification (dose 160, 72 h): no
Liver Necrosis (rat, intraperitoneal, dose 40 mg/kg, 72 hours after treatment): no
Score (histopathology liver necrosis severity score) (rat, intraperitoneal, dose 40 mg/kg, 72 hours; 1 = not remarkable, 2 and higher increasing severity): 1
Liver Necrosis (rat, intraperitoneal, dose 160 mg/kg, 72 hours after treatment): no
Score (histopathology liver necrosis severity score) (rat, intraperitoneal, dose 160 mg/kg, 72 hours; 1 = not remarkable, 2 and higher increasing severity): 1

C[C@]12CC[C@@H]3c4ccc(O)cc4CC[C@H]3[C@@H]1CC[C@@H]2O [estradiol]
Score (histopathology liver necrosis severity score) (Sprague Dawley, rat, in vivo, ip, 0.1 mg/kg, 72 h): 1
Score (histopathology liver necrosis severity score) (Sprague Dawley, rat, in vivo, ip, 0.4 mg/kg, 72 h): 1
Liver Toxicity Necrosis Classification (rat, in vivo): no
Liver Necrosis (rat, in vivo, ip, 0.1 mg/kg): no
Liver Necrosis (rat, in vivo, ip, 0.4 mg/kg): no

CCO [ethanol]
Liver Toxicity Necrosis Classification (rat, in vivo): no
Liver Necrosis (rat, in vivo, ip): no
Score (histopathology liver necrosis severity score) (rat, in vivo, ip): 1
